In patent US9499550B2 (BRISTOL-MYERS SQUIBB COMPANY, priority 2012, dated 2016):
pEC50: −log10 of the molar value.

Key:
[1] = test system: HCV genotype 1b (Con1) replicon in HUH-7 cells; experiment: HCV replicon luciferase reporter assay, genotype 1b; type: cell-based; details: Hepatitis C virus, Huh-7, 72 h, HCV genotype 1b replicon luciferase, 3 days incubation, read-out: LE_1b (EC50, range)
In short: (§1)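 Replicon inhibition for both genotypes was measured as Renilla luciferase signal (EnduRen, 7.5 μM final, 2 h) after 3-day, 37° C exposure of replicon-bearing HUH-7 cells in 4% FCS DMEM, 0.5% DMSO. The 1b construct carries S1179I; the 1a H77 construct carries P1496L and S2204I. Twenty-point, 3-fold dilutions were fitted four-parametrically for EC50, and CC50 was taken from multiplexed Cell Titer-Blue.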

[2] = test system: HCV genotype 1a (H77 strain) replicon in HUH-7 cells; experiment: HCV replicon luciferase reporter assay, genotype 1a; type: cell-based; details: Hepatitis C virus, Huh-7, 72 h, HCV genotype 1a replicon luciferase, 3 days incubation, read-out: LE_1a (EC50, range)
In short: as §1

Row | Compound | pEC50 [1] | pEC50 [2]
1 | CC[C@@H]1C[C@H](C)CC/C=C\[C@@H]2C[C@@]2(C(=O)NS(=O)(=O)C2(C)CC2)NC(=O)[C@@H]2C[C@@H](Oc3nc4c(c5ccccc35)CCCO4)CN2C(=O)[C@H]1NC(=O)OC(C)(C)C(F)(F)F [Compound 6054, 1,1,1-trifluoro-2-methylpropan-2-yl((2R,6S,7R,9R,13aS,14aR,16aS,Z)-2-((2,3-dihydro-1H-pyrano[2,3-c]isoquinolin-6-yl)oxy)-7-ethyl-9-methyl-14a-(((1-methylcyclopropyl)sulfonyl)carbamoyl)-5,16-dioxo-1,2,3,5,6,7,8,9,10,11,13a,14,14a,15,16,16a-hexadecahydrocyclopropa[e]pyrrolo[1,2-a][1,4]diazacyclopentadecin-6-yl)carbamate] | 9.30 to 10.00 | 8.30 to 9.00
2 | CC[C@@H]1C[C@H](C)CC/C=C\[C@@H]2C[C@@]2(C(=O)NS(=O)(=O)C2(C)CC2)NC(=O)[C@@H]2C[C@@H](Oc3nc4c(c5ccccc35)CCCO4)CN2C(=O)[C@H]1NC(=O)OC(C)(C)C(C)(F)F [Compound 6056, 3,3-difluoro-2-methylbutan-2-yl((2R,6S,7R,9R,13aS,14aR,16aS,Z)-2-((2,3-dihydro-1H-pyrano[2,3-c]isoquinolin-6-yl)oxy)-7-ethyl-9-methyl-14a-(((1-methylcyclopropyl)sulfonyl)carbamoyl)-5,16-dioxo-1,2,3,5,6,7,8,9,10,11,13a,14,14a,15,16,16a-hexadecahydrocyclopropa[e]pyrrolo[1,2-a][1,4]diazacyclopentadecin-6-yl)carbamate] | 9.30 to 10.00 | 8.30 to 9.00
3 | C[C@@H]1CC/C=C\[C@@H]2C[C@@]2(C(=O)NS(=O)(=O)C2(C)CC2)NC(=O)[C@@H]2C[C@@H](Oc3nccc4c5c(ccc34)CCCO5)CN2C(=O)[C@@H](NC(=O)OC(C)(C)C(F)(F)F)[C@H](C)C1 [Compound 6058, 1,1,1-trifluoro-2-methylpropan-2-yl((2R,6S,7R,9R,13aS,14aR,16aS,Z)-2-((3,4-dihydro-2H-pyrano[2,3-f]isoquinolin-7-yl)oxy)-7,9-dimethyl-14a-(((1-methylcyclopropyl)sulfonyl)carbamoyl)-5,16-dioxo-1,2,3,5,6,7,8,9,10,11,13a,14,14a,15,16,16a-hexadecahydrocyclopropa[e]pyrrolo[1,2-a][1,4]diazacyclopentadecin-6-yl)carbamate] | 9.00 to 9.29 | 8.30 to 9.00
4 | C[C@@H]1CC/C=C\[C@@H]2C[C@@]2(C(=O)NS(=O)(=O)C2(C)CC2)NC(=O)[C@@H]2C[C@@H](Oc3nccc4c5c(ccc34)CCCO5)CN2C(=O)[C@@H](NC(=O)OC(C)(C)C(C)(F)F)[C@H](C)C1 [Compound 6060, 3,3-difluoro-2-methylbutan-2-yl((2R,6S,7R,9R,13aS,14aR,16aS,Z)-2-((3,4-dihydro-2H-pyrano[2,3-f]isoquinolin-7-yl)oxy)-7,9-dimethyl-14a-(((1-methylcyclopropyl)sulfonyl)carbamoyl)-5,16-dioxo-1,2,3,5,6,7,8,9,10,11,13a,14,14a,15,16,16a-hexadecahydrocyclopropa[e]pyrrolo[1,2-a][1,4]diazacyclopentadecin-6-yl)carbamate] | 8.30 to 9.00 | 8.30 to 9.00
5 | CC[C@@H]1C[C@H](C)CC/C=C\[C@@H]2C[C@@]2(C(=O)NS(=O)(=O)C2(C)CC2)NC(=O)[C@@H]2C[C@@H](Oc3nccc4c5c(ccc34)CCCO5)CN2C(=O)[C@H]1NC(=O)OC(C)(C)C(F)(F)F [Compound 6062, 1,1,1-trifluoro-2-methylpropan-2-yl((2R,6S,7R,9R,13aS,14aR,16aS,Z)-2-((3,4-dihydro-2H-pyrano[2,3-f]isoquinolin-7-yl)oxy)-7-ethyl-9-methyl-14a-(((1-methylcyclopropyl)sulfonyl)carbamoyl)-5,16-dioxo-1,2,3,5,6,7,8,9,10,11,13a,14,14a,15,16,16a-hexadecahydrocyclopropa[e]pyrrolo[1,2-a][1,4]diazacyclopentadecin-6-yl)carbamate] | 9.00 to 9.29 | 8.30 to 9.00
6 | CC[C@@H]1C[C@H](C)CC/C=C\[C@@H]2C[C@@]2(C(=O)NS(=O)(=O)C2(C)CC2)NC(=O)[C@@H]2C[C@@H](Oc3nc4c(c5ccccc35)CCCO4)CN2C(=O)[C@H]1NC(=O)OC(C)(C)C [Compound 6064, tert-butyl ((2R,6S,7R,9R,13aS,14aR,16aS,Z)-2-((2,3-dihydro-1H-pyrano[2,3-c]isoquinolin-6-yl)oxy)-7-ethyl-9-methyl-14a-(((1-methylcyclopropyl)sulfonyl)carbamoyl)-5,16-dioxo-1,2,3,5,6,7,8,9,10,11,13a,14,14a,15,16,16a-hexadecahydrocyclopropa[e]pyrrolo[1,2-a][1,4]diazacyclopentadecin-6-yl)carbamate] | 9.30 to 10.00 | 9.00 to 9.29
7 | C[C@@H]1CC/C=C\[C@@H]2C[C@@]2(C(=O)NS(=O)(=O)C2(CF)CC2)NC(=O)[C@@H]2C[C@@H](Oc3nccc4c5c(ccc34)CCCO5)CN2C(=O)[C@@H](NC(=O)OC(C)(C)C(F)(F)F)[C@H](C)C1 [Compound 6066, 1,1,1-trifluoro-2-methylpropan-2-yl((2R,6S,7R,9R,13aS,14aR,16aS,Z)-2-((3,4-dihydro-2H-pyrano[2,3-f]isoquinolin-7-yl)oxy)-14a-(((1-(fluoromethyl)cyclopropyl)sulfonyl)carbamoyl)-7,9-dimethyl-5,16-dioxo-1,2,3,5,6,7,8,9,10,11,13a,14,14a,15,16,16a-hexadecahydrocyclopropa[e]pyrrolo[1,2-a][1,4]diazacyclopentadecin-6-yl)carbamate] | 8.30 to 9.00 | 8.30 to 9.00
8 | CC[C@@H]1C[C@H](C)CC/C=C\[C@@H]2C[C@@]2(C(=O)NS(=O)(=O)C2(CF)CC2)NC(=O)[C@@H]2C[C@@H](Oc3nc4c(c5ccccc35)CCCO4)CN2C(=O)[C@H]1NC(=O)OC(C)(C)C(F)(F)F [Compound 6068, 1,1,1-trifluoro-2-methylpropan-2-yl((2R,6S,7R,9R,13aS,14aR,16aS,Z)-2-((2,3-dihydro-1H-pyrano[2,3-c]isoquinolin-6-yl)oxy)-7-ethyl-14a-(((1-(fluoromethyl)cyclopropyl)sulfonyl)carbamoyl)-9-methyl-5,16-dioxo-1,2,3,5,6,7,8,9,10,11,13a,14,14a,15,16,16a-hexadecahydrocyclopropa[e]pyrrolo[1,2-a][1,4]diazacyclopentadecin-6-yl)carbamate] | 9.00 to 9.29 | 8.30 to 9.00
9 | CC[C@@H]1C[C@H](C)CC/C=C\[C@@H]2C[C@@]2(C(=O)NS(=O)(=O)C2(CF)CC2)NC(=O)[C@@H]2C[C@@H](Oc3nc4c(c5ccccc35)CCCO4)CN2C(=O)[C@H]1NC(=O)OC(C)(C)C(C)(F)F [Compound 6070, 3,3-difluoro-2-methylbutan-2-yl((2R,6S,7R,9R,13aS,14aR,16aS,Z)-2-((2,3-dihydro-1H-pyrano[2,3-c]isoquinolin-6-yl)oxy)-7-ethyl-14a-(((1-(fluoromethyl)cyclopropyl)sulfonyl)carbamoyl)-9-methyl-5,16-dioxo-1,2,3,5,6,7,8,9,10,11,13a,14,14a,15,16,16a-hexadecahydrocyclopropa[e]pyrrolo[1,2-a][1,4]diazacyclopentadecin-6-yl)carbamate] | 9.00 to 9.29 | 8.30 to 9.00
